Results reported in US9751830B2, “Inhibitors of the tumor necrosis factor receptor complex” (The Trustees of the University of Pennsylvania, priority 2010, dated 2017).

Tests used:
L929 cells = assay: Inhibition of TNF-α-induced cytolysis in L929 cells (Crystal Violet staining); type: cell-based, murine
Experimental: L929 cultured murine fibroblast cells were obtained from American Type Culture collection (Manassas, Va.). TNF-α was obtained from Roche Applied Science (T6674). Actinomycin D (ACTD) and Crystal Violet were obtained from Sigma-Aldrich. Testing compounds were dissolved in DMSO at 25 mM. Compounds F001 and FT002/F002, appearing in FIG. 3 and FIG. 2/FIG. 4, were described previously in application Ser. No. 11/815,134 as FIGS. 1-6 and 1-9, respectively, and are reproduced here for reference. Compound 71023, appearing in FIG. 1, was ([(aminocarbothioyl)amino]{[4-({[[(aminocarbothioyl)amino](ammonio)methyl]amino}methyl)-2,5-dimethylbenzyl]amino}methylidene)ammonium dichloride, available from Maybridge Chemicals, UK. Compound MH_072 (also described herein as the compound of formula (II)) was also obtained from Maybridge Chemicals, UK. Compound MH_0724 was synthesized by Sapient Discovery, San Diego, Calif., as described in Example 2.
(§1) Stock L929 cells were grown on tissue culture plastic in complete Dulbecco's Modified Eagle Medium (DMEM) supplemented with 5 weight percent FBS [Fetal Bovine Serum], NEAA [non-essential amino acids], and glutamine. In a first set of experiments, L929 cells were plated using the same medium on 96-well tissue culture plates at high density (i.e., 30,000 cells/well) before use. In a second set of experiments, the testing compounds were pre-incubated with cells for 1 hour. hTNF-α (10 ng/ml) was added to cells for 30 minutes. Cell lysates were then collected for routine Western Blot.
(§2) Approximately 20 hours after plating the L929 cells on 96-well plates, they were re-fed onto fresh medium containing the test compounds (from 0 to 100 μM, final concentration).
For the TNF-α challenges, approximately 30 minutes later, medium containing 4 unit/mL rh-TNF-α and actinomycin D (10 μg/mL) was added. The final concentrations of rh-TNF-α in the assays were […], which is the ED50 concentrations confirmed to induce 50% cell death. The final concentrations of actinomycin D in the assays were 2.5 μg/mL. The plates were incubated for an additional 16-20 hours at 37° C., 5 vol % CO2 in air.
For Crystal Violet staining, the culture medium was discarded and replaced with 0.2% by weight (in 2% by volume ethanol in water), 100 μL/well. After 15 minutes incubation at room temperature, the plates were washed 6 times with deionized water and dried at 37° C. for 40 minutes. Sodium dodecylsylfate (SDS), (1 wt % in water; 100 μL) was added to each well and mixed gently for 1 hour at room temperature. The plates were read at A570 nm

[1] = tested on: TNFα mediated NFκB activity (A549Luc cells); assay: TNFα mediated NFκB luciferase reporter assay in A549Luc cells; type: cell-based, human; conditions: for inhibition of TNFα mediated luciferase activity: 1 hr pre-treatment, 20 ng/ml TNFα 4 hours, FIG. 7; for activity to reduce luciferase activity, F002 and MH0724 compared: concentrations up to 75 μM
Experimental: To study TNFα mediated-NFκB activity, a luciferase reporter system was established. The stable cell line A549Luc was derived from human A549 cells with chromosomal integration of a luciferase reporter construct regulated by 6 copies of the NFκB response element. This clonal cell line was obtained by co-transfection of pNFκB-TA-luc and pFLAG-TNFR1-neo followed by G418 selection at 800 μg/ml. A549Luc cells were pre-treated with inhibitors at indicated concentrations for 1 hr before incubation with 20 ng/ml TNFα for 4 hours. Increased luciferase activity was recorded after TNFα treatment. Luciferase activity was determined using the Luciferase Assay System from Promega.
In this assay, the luciferase activity of A549Luc cells before and after TNFα treatment (20 ng/ml) was equivalent to 0% and 100%, respectively.

[2] = tested on: phosphorylation of IκB (p-IκBα(Ser32)); assay: Western blot of TNFα-induced phosphorylation of IκB in L929 cells; type: cell-based, murine; conditions: FIG. 4
Experimental: (§3) hTNF-α was obtained from Sigma (Cat # T6674). Antibodies for IκB, phospho-IκB, p38, and phospho-p38 were purchased from Cell Signaling.
as §1
(§4) Inhibition of TNFα signaling pathways: Upon binding to TNFRs, TNFα induces inflammation through the activation of NFκB and p38 signaling pathways. We determined IκB and p38 effects. IκB is the inhibitor for NFκB. TNFα leads to the phosphorylation and disassociation of IκB from NFκB, a signaling event required for NFκB to become activated and translocate into the nucleus to mediate gene transcription.

[3] = molecular target: T1, TNFR1 ectodomain (TNFR1 ECD) (Homo sapiens, UniProt P19438); assay: Isothermal titration calorimetry (ITC) binding to TNFR1 ectodomain; conditions: 25° C., pH 8.0, 5% DMSO, estimated, read-out: affinity between compound and TNFR1 ECD
T1 construct: The calorimetric cell containing purified TNFR1 ectodomain at a concentration of 0.1 mM; His; made in house
T1 sequence (P19438 30-211 limits assumed): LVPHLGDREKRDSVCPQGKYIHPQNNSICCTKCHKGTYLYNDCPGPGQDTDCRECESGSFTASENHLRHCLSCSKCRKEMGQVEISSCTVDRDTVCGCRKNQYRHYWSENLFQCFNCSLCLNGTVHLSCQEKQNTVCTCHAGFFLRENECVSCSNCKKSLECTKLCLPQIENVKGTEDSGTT
Experimental: Human TNFR1 ectodomain was expressed in bacteria as described Murali, et al., 2005 PNAS 102:10970-75, which is incorporated by reference herein in its entirety. The His-tagged recombinant protein was purified from bacterial cell lysate using Ni-NTA column About 4 mg proteins were obtained from 6 liters of culture. The purified TNFR1 ectodomain was verified for binding activity to hTNF-α in ELISA assay.
Isothermal Titration calorimetry (ITC). The binding thermodynamics of MH724 to TNFR1 was measured by ITC using a high precision VP-ITC titration calorimetric system (Microcal LLC, Northampton, Mass.). The calorimetric cell containing purified TNFR1 ectodomain at a concentration of 0.1 mM in 50 mM sodium phosphate buffer (pH 8.0) containing 300 mM NaCl and 5% DMSO was titrated with MH724 dissolved in the same buffer. The concentration of inhibitor was 2 mM. Injection volumes were 8 μl. All solutions were properly degassed to avoid any formation of bubbles in the calorimeter during stirring. The heat evolved upon each injection of inhibitor was obtained from the integral of the calorimetric signal. The heat associated with the binding of the inhibitor to TNFR1 was obtained by subtracting the heat of dilution from the heat of reaction. The measurements were made at 25° C. Data were analyzed and fitted by using the data analysis software supplied by Microcal (ORIGIN 5.0).

[4] = tested on: phosphorylation of p38 (p-p38); assay: Western blot of TNFα-induced phosphorylation of p38 in L929 cells; type: cell-based, murine; conditions: 50 μM; 1 hour pre-incubation, hTNF-α 10 ng/ml 30 minutes; FIG. 4
Experimental: as §3, §1, §4

[5] = Solubility under the conditions of the L929 cytolysis assay; type: physicochemical; conditions: L929 cytolysis assay medium, plasma or biological fluid; read-out: soluble under these conditions only up to
Experimental: as §2

COc1ccc(C(O)(c2ccc(OC)cc2)c2ccc(OC)cc2)cc1 [Compound F001, reference compound]
inhibition of TNF-α-induced cytolysis in L929 cells (L929 cells; from 0 to 100 μM, FIG. 3): minimal activity

CC(=O)Oc1ccc(C(O)(c2ccc(OC(C)=O)cc2)c2ccc(OC(C)=O)cc2)cc1 [Compound F002, reference compound]
inhibition of TNFα mediated luciferase activity [1]: dose-dependent manner | activity to reduce luciferase activity, F002 and MH0724 compared [1]: comparable activity | activity on TNFα signaling, F002 compared with MH724 ([2]; 10 μM, IκB and p38 phosphorylation): slightly more activity

COC(CNc1ccc(C(F)(F)F)cc1)COc1ccccc1COC(C)=O (stereo not shown) [MH_0724, Acetic acid 2-[2-methoxy-3-(4-trifluoromethyl-phenylamino)-propoxy]-benzyl ester]
Kd [3]: 32 µM | inhibition of TNFα-induced phosphorylation of p38 [4]: clearly inhibits | luciferase activity, of the control ([1]; 100 μM, before and after TNFα treatment = 0% and 100%): less than 40% | inhibition of TNFα mediated luciferase activity [1]: dose-dependent manner | activity to reduce luciferase activity, F002 and MH0724 compared [1]: comparable activity | inhibition of TNFα-induced phosphorylation of IκB ([2]; 50 μM, 1 hour pre-incubation, hTNF-α 10 ng/ml 30 minutes): clearly inhibits | activity on TNFα signaling, MH724 compared with F002 ([2]; 50 μM, IκB and p38 phosphorylation): better activity | inhibition at 100 µM (L929 cells; Mus musculus, L929, 100 μM, read-out: maximal inhibition of TNF-α-induced cytolysis): ~70% | inhibition at 50 µM (L929 cells; Mus musculus, L929, at 50 μM): ~40% | inhibition of TNF-α-induced cytolysis (L929 cells; at 50 μM): about 40% | inhibition of TNF-α-induced cytolysis in L929 cells (L929 cells; from 0 to 100 μM, FIG. 3): dose-dependent inhibition

CC(=O)Nc1ccccc1OCC(O)CNCc1ccc(C(F)(F)F)cc1 (stereo not shown) [MH_072]
maximum inhibition of TNF-α-induced cytolysis (L929 cells; 0 to 50 μM, level limited by solubility): about 30% | inhibition at 50 µM (L929 cells; Mus musculus, L929, at 50 μM): ~30% | inhibition of TNF-α-induced cytolysis in L929 cells (L929 cells; from 0 to 50 μM, FIG. 2): dose-dependent inhibition | solubility [5]: ≤ 50 µM
